Test results reported in US4008323A, “Method of reducing cholesterol using certain aromatic keto acids” (Pierre Fabre S.A., priority 1974, dated 1977).
Like-named read-outs stand apart in the source and are kept apart here.

Tests used:
[1] = Acute toxicity in mice, oral LD50 (method of Miller & Tainter); conditions: mouse, in vivo, mortality determined 48 hours after administration
Experimental: The chemical compounds previously described were submitted to toxicity tests. It was determined in mice by oral administration and was calculated in accordance with the method of MILLER & TAINTER. It is generally low and greater than 1000 mg/kg.

Solubility properties = assay type: physicochemical
total blood cholesterol = assay: Total blood cholesterol in rats on a normal diet (hypocholesterolemizing); assay type: in vivo; conditions: 300 mg/kg oral, 4 consecutive days; 5th day, fasted 16 hours
Experimental: One lot of rats served as control.
The sampling was effected on the 5th day after 16 hours fasting, by cardiac puncture and the total blood cholesterol determination was effected by the Liebermann-Burchardt colorimetric method.

carrageenin edema = assay: Carrageenin edema test in rats (antiinflammatory); assay type: in vivo; conditions: for change in vivo at 300 mg/kg / change in vivo at 75 mg/kg / change in vivo at 200 mg/kg: Rattus norvegicus; for change in vivo at 300 mg/kg: 300 mg/kg oral; for % var. / action (variation of paw volume increase vs controls) / change in vivo at 75 mg/kg: 75 mg/kg oral; for change in vivo at 200 mg/kg: 200 mg/kg oral
Experimental: The antiinflammatory properties were shown by the carrageenin edema test in rats, the products having been administered orally 1 hour before the intrapodal injection of 0.05 ml of a 2% suspension of carrageenin; the volume of the rat's paw was measured by plethysmoscopy 3, 4 and 6 hours afterwards.
The experiment concerned for each lot […]; one lot of animals receiving only the vehicle (2 ml/100 g of Tween + water) which served for the administration of the products, constituted the control lot. The following table sets forth the results obtained: […]

[2] = test system: writhings induced by phenylbenzoquinone; assay: Writhing test, phenylbenzoquinone (analgetic); assay type: in vivo, mice; conditions: 300 mg/kg oral, t + 35 to t + 40 min
Experimental: The analgetic properties of certain compounds were shown in mice by the "writhing test" method, that is to say with reference to the writhings induced by phenylbenzoquinone. The administration of the product is effected orally at time t; it is followed by the intraperitoneal injection of 0.2% phenylbenzoquinone at t + 30 min. The determination of the writhings is effected from t + 35 min. to t + 40 min. One lot of animals receiving only the vehicle (5% Tween 80 in 0.9% NaCl) serves as control.

[3] = + 3 hrs, read-out: % increase in volume of the paw, mean (m)
[4] = + 3 hrs, read-out: Action (variation of paw volume increase vs controls)
[5] = + 4 hrs, read-out: % increase in volume of the paw, mean (m)
[6] = + 4 hrs, read-out: Action (variation of paw volume increase vs controls)
[7] = + 6 hrs, read-out: % increase in volume of the paw, mean (m)
[8] = + 6 hrs, read-out: Action (variation of paw volume increase vs controls)
[9] = read-out: % mean variation of the volume of the paw at 3, 4 and 6 hrs
[10] = 3 hrs, read-out: % increase in volume of the paw, mean (m)
[11] = 4 hrs, read-out: % increase in volume of the paw, mean (m)
[12] = 6 hrs, read-out: % increase in volume of the paw, mean (m)

SMILES | LD50 at 48 h [1] [mg/kg] | Solubility in water (Solubility properties; water, in words) | Total blood cholesterol, M (total blood cholesterol) | Solubility in N-methyl pyrrolidone (Solubility properties) [%] | Solubility in ether (Solubility properties; in words) | % var. / action (variation of paw volume increase vs controls) (carrageenin edema; 3 hrs) [%] | % var. / action (variation of paw volume increase vs controls) (carrageenin edema; 4 hrs) [%] | % var. / action (variation of paw volume increase vs controls) (carrageenin edema; 6 hrs) [%] | change in vivo at 75 mg/kg (carrageenin edema; [10]) [%] | change in vivo at 75 mg/kg (carrageenin edema; [11]) [%] | change in vivo at 75 mg/kg (carrageenin edema; [12]) [%] | change in vivo at 75 mg/kg (carrageenin edema; [9]) [%] | also measured
C=C(CC(=O)c1ccc(F)cc1)C(=O)O [F 1376, 2-methylene 4-oxo 4-fluorophenyl butyric acid] | 1400 | insoluble | 0,66 | – | – | – | – | – | – | – | – | – | Solubility in ethyl alcohol (Solubility properties; ethyl alcohol / ethanol / alcohol): 20%; Solubility in propylene glycol (Solubility properties; propylene glycol): 10%; change in vivo at 300 mg/kg (carrageenin edema; [3]): 50.8%; change in vivo at 300 mg/kg (carrageenin edema; [4]): -17%; change in vivo at 300 mg/kg (carrageenin edema; [5]): 51.5%; change in vivo at 300 mg/kg (carrageenin edema; [6]): -15%; change in vivo at 300 mg/kg (carrageenin edema; [7]): 54.8%; change in vivo at 300 mg/kg (carrageenin edema; [8]): -4%; change in vivo at 300 mg/kg (carrageenin edema; [9]): -12%
C=C(CC(=O)c1ccc(-c2ccccc2)cc1)C(=O)O [F 1377, 2-methylene 4-oxo 4-(paraphenylphenyl) butyric acid] | > 2000 | insoluble | – | 15 | insoluble | -37 | -37 | -18 | 28.8 | 30.5 | 37.2 | -30 | Solubility in dimethyl sulfoxide (Solubility properties; dimethyl sulfoxide): 10%; Solubility in propylene glycol (in words) (Solubility properties; propylene glycol, in words): insoluble; Solubility in water in the form of sodium salt (in words) (Solubility properties; sodium salt, water, in words): insoluble; % Decrease (of writhings) [2]: 68,6%; Mean No. of Writhings [2]: 8,00; change in vivo at 200 mg/kg (carrageenin edema; [3]): 27.4%; change in vivo at 200 mg/kg (carrageenin edema; [4]): -46%; change in vivo at 200 mg/kg (carrageenin edema; [5]): 28%; change in vivo at 200 mg/kg (carrageenin edema; [6]): -43%; change in vivo at 200 mg/kg (carrageenin edema; [7]): 28.4%; change in vivo at 200 mg/kg (carrageenin edema; [8]): -32%; change in vivo at 200 mg/kg (carrageenin edema; [9]): -40%
CC(=CC(=O)c1ccc(-c2ccccc2Cl)cc1)C(=O)O [F 1439, 2-methyl 4-oxo 4-(4'-O-chlorophenylphenyl) 2-butenoic acid] | 2370 | insoluble | 0,67 | 25 | Soluble | -36 | -33 | -28 | 38 | 40 | 40 | -32 | Solubility in chloroform (in words) (Solubility properties; chloroform, in words): Soluble; Solubility in NN-dimethyl acetamide (Solubility properties; dimethyl acetamide): 20%
